Assay results reported in publication PMC4457528, “Identification of Novel Small Molecule Inhibitors of Oncogenic RET Kinase” (PLoS ONE, 2015).
Like-named read-outs stand apart in the source and are kept apart here.

Columns and labels:
Experiment in all cases: KinomeScan kinase panel, single concentration 10 µM
Assay type in all cases: binding
[1] = target: T1, KinomeScan kinase panel (Homo sapiens, UniProt P22455); details: FGFR4, 10 µM; read-out: score (%)
T1 construct: purchased DiscoveRx (KinomeScan)

[2] = target: T2, KinomeScan kinase panel (Homo sapiens, UniProt Q9NY57); details: kinase YANK2; 10 µM; read-out: score (%)
T2 construct: purchased DiscoveRx (KinomeScan)

[3] = target: T3, KinomeScan kinase panel (Homo sapiens, UniProt P42338); details: PIK3CB, 10 µM; read-out: score (%)
T3 construct: purchased DiscoveRx (KinomeScan)

[4] = target: T4, KinomeScan kinase panel (Homo sapiens, UniProt P48730); details: CSNK1D, 10 µM; read-out: score (%)
T4 construct: purchased DiscoveRx (KinomeScan)

[5] = target: T5, KinomeScan kinase panel (Homo sapiens, UniProt Q16288); details: 10 µM, read-out: score (%)
T5 construct: purchased DiscoveRx (KinomeScan)

[6] = target: T6, KinomeScan kinase panel (Homo sapiens, UniProt Q9Y2H1); details: NDR2, 10 µM; read-out: score (%)
T6 construct: purchased DiscoveRx (KinomeScan)

[7] = target: T7, KinomeScan kinase panel (Homo sapiens, UniProt Q9BXA7); details: read-out: score (%)
T7 construct: purchased DiscoveRx (KinomeScan)
T7 sequence (Q9BXA7 1-367): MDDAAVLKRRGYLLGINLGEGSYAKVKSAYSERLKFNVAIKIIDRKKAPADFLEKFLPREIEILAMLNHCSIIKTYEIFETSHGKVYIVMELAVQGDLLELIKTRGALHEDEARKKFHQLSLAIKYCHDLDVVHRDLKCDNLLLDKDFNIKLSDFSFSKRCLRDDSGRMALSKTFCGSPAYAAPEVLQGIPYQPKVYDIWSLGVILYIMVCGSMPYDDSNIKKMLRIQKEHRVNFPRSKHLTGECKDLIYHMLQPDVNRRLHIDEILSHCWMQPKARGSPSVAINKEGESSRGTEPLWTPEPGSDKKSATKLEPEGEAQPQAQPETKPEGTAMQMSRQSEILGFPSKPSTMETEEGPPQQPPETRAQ

[8] = target: T8, KinomeScan kinase panel (Homo sapiens, UniProt P36888); details: FLT3, 10 µM; read-out: score (%)
T8 construct: purchased DiscoveRx (KinomeScan)
T8 sequence (P36888 27-993): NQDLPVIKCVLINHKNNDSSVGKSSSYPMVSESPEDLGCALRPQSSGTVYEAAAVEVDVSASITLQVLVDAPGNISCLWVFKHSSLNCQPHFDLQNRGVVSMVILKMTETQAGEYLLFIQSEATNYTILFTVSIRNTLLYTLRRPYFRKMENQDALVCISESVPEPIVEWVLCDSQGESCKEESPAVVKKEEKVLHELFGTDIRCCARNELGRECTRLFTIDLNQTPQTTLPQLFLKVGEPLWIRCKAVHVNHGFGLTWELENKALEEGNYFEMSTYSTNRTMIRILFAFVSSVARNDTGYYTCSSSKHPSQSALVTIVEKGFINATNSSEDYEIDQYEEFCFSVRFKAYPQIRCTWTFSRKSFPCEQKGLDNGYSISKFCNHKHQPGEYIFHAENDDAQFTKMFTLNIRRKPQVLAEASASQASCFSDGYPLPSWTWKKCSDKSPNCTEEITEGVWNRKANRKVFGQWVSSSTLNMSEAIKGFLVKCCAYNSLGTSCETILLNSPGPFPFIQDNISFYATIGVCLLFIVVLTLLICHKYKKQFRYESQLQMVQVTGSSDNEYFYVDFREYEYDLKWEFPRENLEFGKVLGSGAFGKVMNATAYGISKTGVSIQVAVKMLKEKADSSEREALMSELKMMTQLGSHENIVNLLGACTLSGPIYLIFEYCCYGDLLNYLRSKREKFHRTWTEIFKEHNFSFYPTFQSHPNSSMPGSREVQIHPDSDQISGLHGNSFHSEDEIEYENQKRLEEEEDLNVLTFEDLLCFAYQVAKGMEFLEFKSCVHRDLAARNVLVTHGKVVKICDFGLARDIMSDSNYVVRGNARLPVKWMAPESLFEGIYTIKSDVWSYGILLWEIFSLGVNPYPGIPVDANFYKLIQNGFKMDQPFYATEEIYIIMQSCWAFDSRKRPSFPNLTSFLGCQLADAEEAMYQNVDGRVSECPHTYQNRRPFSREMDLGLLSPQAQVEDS

[9] = target: T9, KinomeScan kinase panel (Homo sapiens, UniProt P30530); details: AXL, 10 µM; read-out: score (%)
T9 construct: purchased DiscoveRx (KinomeScan)
T9 sequence (P30530 26-894): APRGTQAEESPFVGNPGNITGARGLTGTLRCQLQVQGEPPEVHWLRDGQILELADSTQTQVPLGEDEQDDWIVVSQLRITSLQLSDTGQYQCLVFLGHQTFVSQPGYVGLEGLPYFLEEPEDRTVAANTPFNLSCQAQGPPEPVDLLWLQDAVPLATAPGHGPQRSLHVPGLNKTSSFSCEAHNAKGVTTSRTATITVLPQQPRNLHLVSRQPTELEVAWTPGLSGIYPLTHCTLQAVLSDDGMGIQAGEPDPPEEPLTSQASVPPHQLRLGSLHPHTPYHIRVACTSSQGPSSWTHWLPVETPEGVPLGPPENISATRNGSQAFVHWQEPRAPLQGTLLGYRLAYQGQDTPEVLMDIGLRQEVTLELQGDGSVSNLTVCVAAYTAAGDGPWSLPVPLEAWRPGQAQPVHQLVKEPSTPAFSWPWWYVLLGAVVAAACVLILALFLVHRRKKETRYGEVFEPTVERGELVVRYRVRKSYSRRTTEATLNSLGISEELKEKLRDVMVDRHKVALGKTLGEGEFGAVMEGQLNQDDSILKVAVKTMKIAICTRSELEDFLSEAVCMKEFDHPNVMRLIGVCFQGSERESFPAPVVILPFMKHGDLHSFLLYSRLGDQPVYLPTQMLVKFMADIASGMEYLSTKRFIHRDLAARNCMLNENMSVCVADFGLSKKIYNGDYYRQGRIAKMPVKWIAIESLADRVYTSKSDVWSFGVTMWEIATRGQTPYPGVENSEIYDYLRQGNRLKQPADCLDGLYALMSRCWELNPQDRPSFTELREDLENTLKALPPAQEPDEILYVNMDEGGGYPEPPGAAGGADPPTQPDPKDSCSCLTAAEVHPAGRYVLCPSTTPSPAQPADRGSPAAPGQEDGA

T2 sequence (Q9NY57 whole entry): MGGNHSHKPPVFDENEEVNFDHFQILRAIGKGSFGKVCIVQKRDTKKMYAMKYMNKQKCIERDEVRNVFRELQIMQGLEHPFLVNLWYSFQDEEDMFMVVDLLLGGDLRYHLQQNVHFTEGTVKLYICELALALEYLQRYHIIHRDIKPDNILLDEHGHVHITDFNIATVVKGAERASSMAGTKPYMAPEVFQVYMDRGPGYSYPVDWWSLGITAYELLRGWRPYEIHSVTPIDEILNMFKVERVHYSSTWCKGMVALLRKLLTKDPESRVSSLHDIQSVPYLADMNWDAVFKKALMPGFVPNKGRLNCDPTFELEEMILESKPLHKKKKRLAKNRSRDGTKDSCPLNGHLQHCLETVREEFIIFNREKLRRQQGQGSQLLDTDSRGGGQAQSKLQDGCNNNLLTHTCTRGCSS
T4 sequence (P48730 whole entry): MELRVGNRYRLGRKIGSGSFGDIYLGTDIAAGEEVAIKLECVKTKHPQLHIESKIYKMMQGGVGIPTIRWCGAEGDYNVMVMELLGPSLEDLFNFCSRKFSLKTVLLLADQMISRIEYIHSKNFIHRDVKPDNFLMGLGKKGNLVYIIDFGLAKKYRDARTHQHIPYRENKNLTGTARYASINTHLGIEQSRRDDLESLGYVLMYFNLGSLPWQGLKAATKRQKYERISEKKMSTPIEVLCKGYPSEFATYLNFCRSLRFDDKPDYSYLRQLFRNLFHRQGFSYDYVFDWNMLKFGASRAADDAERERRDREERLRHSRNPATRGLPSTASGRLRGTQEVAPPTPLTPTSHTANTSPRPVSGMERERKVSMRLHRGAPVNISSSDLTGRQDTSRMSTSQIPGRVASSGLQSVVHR
T6 sequence (Q9Y2H1 whole entry): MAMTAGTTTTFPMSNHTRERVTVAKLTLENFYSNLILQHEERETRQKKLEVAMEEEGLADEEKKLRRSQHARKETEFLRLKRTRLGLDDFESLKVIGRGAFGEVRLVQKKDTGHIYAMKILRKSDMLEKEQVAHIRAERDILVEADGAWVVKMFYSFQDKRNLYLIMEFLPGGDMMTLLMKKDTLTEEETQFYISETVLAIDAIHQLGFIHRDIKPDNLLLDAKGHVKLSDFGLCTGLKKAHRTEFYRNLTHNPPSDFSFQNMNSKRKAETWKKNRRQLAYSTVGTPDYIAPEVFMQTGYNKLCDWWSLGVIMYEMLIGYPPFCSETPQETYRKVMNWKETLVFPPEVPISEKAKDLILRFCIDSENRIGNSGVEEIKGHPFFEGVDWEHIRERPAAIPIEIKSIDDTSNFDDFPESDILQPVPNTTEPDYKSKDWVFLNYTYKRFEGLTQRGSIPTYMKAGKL
T3 sequence (P42338 whole entry): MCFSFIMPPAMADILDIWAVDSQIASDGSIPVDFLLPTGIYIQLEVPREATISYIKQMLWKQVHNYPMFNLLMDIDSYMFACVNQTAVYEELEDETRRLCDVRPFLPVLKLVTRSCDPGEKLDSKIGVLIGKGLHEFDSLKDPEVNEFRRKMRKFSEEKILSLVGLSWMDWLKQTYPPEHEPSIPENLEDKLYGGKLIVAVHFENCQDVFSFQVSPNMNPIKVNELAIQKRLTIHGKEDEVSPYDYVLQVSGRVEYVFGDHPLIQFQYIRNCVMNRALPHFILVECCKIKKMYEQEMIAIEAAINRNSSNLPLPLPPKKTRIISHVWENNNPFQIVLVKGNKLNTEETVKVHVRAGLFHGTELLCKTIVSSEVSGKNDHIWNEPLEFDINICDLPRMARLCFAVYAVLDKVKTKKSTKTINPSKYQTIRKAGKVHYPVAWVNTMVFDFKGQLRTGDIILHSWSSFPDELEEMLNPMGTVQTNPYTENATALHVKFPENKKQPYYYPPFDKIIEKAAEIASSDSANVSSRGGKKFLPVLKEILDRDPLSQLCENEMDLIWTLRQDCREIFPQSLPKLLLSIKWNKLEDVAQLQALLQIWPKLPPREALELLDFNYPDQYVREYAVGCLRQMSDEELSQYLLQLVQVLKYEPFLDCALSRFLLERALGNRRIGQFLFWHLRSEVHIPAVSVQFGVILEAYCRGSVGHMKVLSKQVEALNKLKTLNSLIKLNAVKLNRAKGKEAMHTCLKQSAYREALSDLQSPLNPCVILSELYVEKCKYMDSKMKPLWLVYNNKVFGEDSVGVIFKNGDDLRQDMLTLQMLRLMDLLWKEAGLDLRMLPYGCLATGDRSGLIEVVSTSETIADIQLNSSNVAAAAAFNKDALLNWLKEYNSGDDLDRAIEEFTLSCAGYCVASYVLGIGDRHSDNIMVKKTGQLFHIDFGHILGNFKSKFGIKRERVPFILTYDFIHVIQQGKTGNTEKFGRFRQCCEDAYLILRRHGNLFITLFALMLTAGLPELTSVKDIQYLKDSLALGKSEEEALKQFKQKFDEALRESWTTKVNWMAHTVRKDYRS
T1 sequence (P22455 22-802): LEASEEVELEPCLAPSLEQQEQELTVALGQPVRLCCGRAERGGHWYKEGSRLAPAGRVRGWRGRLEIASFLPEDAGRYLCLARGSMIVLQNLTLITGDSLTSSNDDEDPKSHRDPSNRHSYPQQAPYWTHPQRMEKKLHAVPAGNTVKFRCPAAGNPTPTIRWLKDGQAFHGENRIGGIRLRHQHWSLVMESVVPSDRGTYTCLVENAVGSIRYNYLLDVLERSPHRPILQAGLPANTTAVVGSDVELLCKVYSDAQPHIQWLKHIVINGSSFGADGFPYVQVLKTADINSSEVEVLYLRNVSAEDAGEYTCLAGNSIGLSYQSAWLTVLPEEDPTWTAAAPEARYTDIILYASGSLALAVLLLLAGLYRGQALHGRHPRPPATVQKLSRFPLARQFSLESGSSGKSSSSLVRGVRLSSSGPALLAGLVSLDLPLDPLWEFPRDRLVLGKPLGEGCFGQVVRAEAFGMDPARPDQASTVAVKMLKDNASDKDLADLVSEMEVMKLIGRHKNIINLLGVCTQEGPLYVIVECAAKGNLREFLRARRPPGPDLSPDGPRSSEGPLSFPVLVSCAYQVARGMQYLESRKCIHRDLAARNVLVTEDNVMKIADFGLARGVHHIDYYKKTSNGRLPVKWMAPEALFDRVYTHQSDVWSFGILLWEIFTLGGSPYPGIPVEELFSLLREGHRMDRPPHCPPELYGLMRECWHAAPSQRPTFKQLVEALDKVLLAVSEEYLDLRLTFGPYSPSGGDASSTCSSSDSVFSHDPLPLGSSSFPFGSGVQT
T5 sequence (Q16288 32-839): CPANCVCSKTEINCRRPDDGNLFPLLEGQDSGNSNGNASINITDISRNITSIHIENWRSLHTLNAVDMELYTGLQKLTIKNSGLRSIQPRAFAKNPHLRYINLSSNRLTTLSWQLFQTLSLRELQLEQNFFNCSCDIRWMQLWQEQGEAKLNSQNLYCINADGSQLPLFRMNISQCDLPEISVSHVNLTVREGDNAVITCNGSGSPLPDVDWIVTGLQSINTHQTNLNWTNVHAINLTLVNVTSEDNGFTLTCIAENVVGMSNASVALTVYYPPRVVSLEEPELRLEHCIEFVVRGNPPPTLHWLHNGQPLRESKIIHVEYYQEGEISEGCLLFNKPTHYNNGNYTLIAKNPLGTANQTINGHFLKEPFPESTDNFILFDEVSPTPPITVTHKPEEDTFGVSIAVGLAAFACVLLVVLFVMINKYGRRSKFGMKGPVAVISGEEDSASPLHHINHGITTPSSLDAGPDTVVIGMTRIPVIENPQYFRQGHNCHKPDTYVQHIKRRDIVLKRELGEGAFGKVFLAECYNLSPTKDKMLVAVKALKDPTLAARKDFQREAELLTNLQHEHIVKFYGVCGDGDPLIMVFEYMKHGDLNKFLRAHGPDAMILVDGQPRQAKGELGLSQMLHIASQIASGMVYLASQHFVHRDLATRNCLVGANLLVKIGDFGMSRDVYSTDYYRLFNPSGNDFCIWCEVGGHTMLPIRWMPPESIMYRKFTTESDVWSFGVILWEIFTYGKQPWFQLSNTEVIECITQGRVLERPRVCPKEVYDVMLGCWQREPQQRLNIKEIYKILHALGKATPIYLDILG

| remaining binding at 10 µM ([5]; TRKC) [%] | remaining binding at 10 µM ([7]; TSSK1, 10 µM) [%] | SMILES | remaining binding at 10 µM [1] [%] | remaining binding at 10 µM [2] [%] | remaining binding at 10 µM [3] [%] | remaining binding at 10 µM [4] [%] | remaining binding at 10 µM ([5]; kinase TRKC) [%] | remaining binding at 10 µM [6] [%] | remaining binding at 10 µM ([7]; kinase TSSK1B, 10 µM) [%] | remaining binding at 10 µM [8] [%] | remaining binding at 10 µM [9] [%] |
| --- | --- | --- | --- | --- | --- | --- | --- | --- | --- | --- | --- |
|  |  | CCN1CCN(Cc2ccc(NC(=O)c3ccc(C)c(NC(=O)c4cncc(-c5cccs5)c4)c3)cc2C(F)(F)F)CC1 [ALW-II-41-27] | 8.7 | > 30 | > 30 | 5 | 0.85 | 11 | > 30 | 0.65 | > 30 |
| 5.3 | > 30 | CCN1CCN(Cc2ccc(NC(=O)c3ccc(C)c(/C=C/c4cnc5[nH]ccc5c4Cl)c3)cc2C(F)(F)F)CC1 [HG-6-63-01, (E)-3-(2-(4-chloro-1H-pyrrolo[2,3-b]pyridin-5-yl)vinyl)-N-(4-((4-ethylpiperazin-1-yl)methyl)-3-(trifluoromethyl)phenyl)-4-methylbenzamide] | 0.2 | > 30 | > 30 | > 30 |  | > 30 |  | 0.1 | 17 |
|  |  | CCN1CCN(Cc2ccc(NC(=O)c3ccc(C)c(C#Cc4cccnc4)c3)cc2C(F)(F)F)CC1 [XMD15-44] | 0 | 100 | 100 | 29 | 0.35 | 8.7 | 92 | 0.25 | 2.9 |
